Assay: xn = mol fraction of the nth substance listed

CCCCN + CCCCCCO
viscosity [mPa·s], 101.33 kPa
Conditions	303.15 K	313.15 K	323.15 K
x1 = 0.099	3.27	2.673	–
x1 = 0.1002	3.164	2.411	1.888
x1 = 0.2005	2.593	2.026	1.608
x1 = 0.2079	2.728	2.202	–
x1 = 0.2888	2.334	1.906	–
x1 = 0.3001	2.082	1.642	1.322
x1 = 0.4004	1.701	1.356	1.113
x1 = 0.414	1.79	1.47	–
x1 = 0.5002	1.371	1.12	0.923
x1 = 0.5223	1.39	1.161	–
x1 = 0.5987	1.155	0.9887	–
x1 = 0.6001	1.105	0.909	0.765
x1 = 0.6999	0.906	0.759	0.648
x1 = 0.7197	0.8668	0.754	–
x1 = 0.8001	0.729	0.622	0.537
x1 = 0.8124	0.6995	0.611	–
x1 = 0.8998	0.573	0.494	0.433
x1 = 0.9046	0.5625	0.4944	–

CCCCCCCCCC(=O)OCC + CCCCCO
viscosity [mPa·s], 100 kPa
Conditions	x1 = 0.1005	x1 = 0.201	x1 = 0.3	x1 = 0.4	x1 = 0.498	x1 = 0.5999	x1 = 0.7009	x1 = 0.7997	x1 = 0.8996
293.15 K	3.246	2.808	2.563	2.417	2.33	2.29	2.258	2.259	2.289
298.15 K	2.839	2.481	2.277	2.156	2.086	2.052	2.031	2.036	2.061
303.15 K	2.493	2.202	2.036	1.943	1.878	1.852	1.834	1.842	1.866
308.15 K	2.218	1.965	1.827	1.744	1.698	1.683	1.668	1.676	1.702
313.15 K	1.966	1.762	1.648	1.581	1.543	1.529	1.522	1.536	1.558
318.15 K	1.823	1.586	1.492	1.438	1.408	1.396	1.396	1.408	1.432

Reference: the CheMixHub viscosity set
